Key:
Plasmodium cynomolgi [1] = experiment: Cures in Plasmodium cynomolgi infected rhesus monkey at 0.316 mg/kg, n=2; type: functional
Plasmodium cynomolgi [2] = experiment: Number of cures in Plasmodium cynomolgi infected rhesus monkey at 0.25 mg/kg, n=8; type: functional
Plasmodium cynomolgi [3] = experiment: Cures in Plasmodium cynomolgi infected rhesus monkey at 0.75 mg/kg, n=9; type: functional
Plasmodium cynomolgi [4] = experiment: Cures in Plasmodium cynomolgi infected rhesus monkey at 0.5 mg/kg, n=12; type: functional
Mus musculus [5] = experiment: Antimalarial activity was determined in Plasmodium berghei infected mice (Mus musculus) at 20 mg/kg dose; type: functional; set-up: unit not given beside the values
Mus musculus [6] = experiment: Antimalarial activity was determined in Plasmodium berghei infected mice (Mus musculus) at 40 mg/kg dose; type: functional; set-up: unit not given beside the values
Mus musculus [7] = experiment: Antimalarial activity was determined in Plasmodium berghei infected mice (Mus musculus) at 80 mg/kg dose; type: functional
Mus musculus [8] = experiment: Number of toxic death was determined in Plasmodium berghei infected mice (Mus musculus) at 160 mg/kg dose; type: ADME, organism-based; set-up: dose 160 mg/kg; details: in vivo
Mus musculus [9] = experiment: Number of toxic death was determined in Plasmodium berghei infected mice (Mus musculus) at 320 mg/kg dose; type: ADME, organism-based; set-up: dose 320 mg/kg; details: in vivo
Mus musculus [10] = experiment: Number of toxic death was determined in Plasmodium berghei infected mice (Mus musculus) at 640 mg/kg dose; type: ADME, organism-based; set-up: dose 640 mg/kg; details: in vivo
Plasmodium cynomolgi [11] = experiment: Cures in Plasmodium cynomolgi infected rhesus monkey at 0.5 mg/kg; n=2; type: functional
Plasmodium cynomolgi [12] = experiment: Cures in Plasmodium cynomolgi infected rhesus monkey at 10 mg/kg, n=1; type: functional
Plasmodium cynomolgi [13] = experiment: Cures in Plasmodium cynomolgi infected rhesus monkey at 0.25 mg/kg, n=1; type: functional
Plasmodium cynomolgi [14] = experiment: Cures in Plasmodium cynomolgi infected rhesus monkey at 0.75 mg/kg, n=6; type: functional
Plasmodium cynomolgi [15] = experiment: Cures in Plasmodium cynomolgi infected rhesus monkey at 1 mg/kg, n=3; type: functional
Mus musculus [16] = organism: Mus musculus; experiment: Number of mice (Mus musculus) survived after 60 days of post infection with Plasmodium berghei; type: functional
Mus musculus [17] = experiment: (§1) Antimalarial activity was determined in Plasmodium berghei infected mice (Mus musculus) at 320 mg/kg dose; type: functional; set-up: unit not given beside the values
Mus musculus [18] = experiment: Antimalarial activity was determined in Plasmodium berghei infected mice (Mus musculus) at 160 mg/kg dose; type: functional
Plasmodium cynomolgi [19] = experiment: Cures in Plasmodium cynomolgi infected rhesus monkey at 0.5 mg/kg, n=1; type: functional
Plasmodium cynomolgi [20] = experiment: Cures in Plasmodium cynomolgi infected rhesus monkey at 1 mg/kg, n=1; type: functional
Mus musculus [21] = experiment: Number of mice (Mus musculus) survived after 60 days of post infection with Plasmodium berghei at a dose of 40 mg/kg; type: functional
Mus musculus [22] = experiment: Number of mice (Mus musculus) survived after 60 days of post infection with Plasmodium berghei at a dose of 640 mg/kg; type: functional
Mus musculus [23] = experiment: Number of mice (Mus musculus) survived after 60 days of post infection with Plasmodium berghei at a dose of 80 mg/kg; type: functional
Mus musculus [24] = experiment: Number of mice (Mus musculus) survived after 60 days of post infection with Plasmodium berghei at a dose of 10 mg/kg; type: functional
Mus musculus [25] = experiment: Number of mice (Mus musculus) survived after 60 days of post infection with Plasmodium berghei at a dose of 160 mg/kg; type: functional
Mus musculus [26] = experiment: Number of mice (Mus musculus) survived after 60 days of post infection with Plasmodium berghei at a dose of 20 mg/kg; type: functional
Mus musculus [27] = experiment: Number of mice (Mus musculus) survived after 60 days of post infection with Plasmodium berghei at a dose of 320 mg/kg; type: functional
Mus musculus [28] = experiment: Antimalarial activity was determined in Plasmodium berghei infected mice (Mus musculus) at 640 mg/kg dose; type: functional
Plasmodium cynomolgi [29] = experiment: Cures in Plasmodium cynomolgi infected rhesus monkey at 0.25 mg/kg, n=5; type: functional
Plasmodium cynomolgi [30] = experiment: Cures in Plasmodium cynomolgi infected rhesus monkey at 0.125 mg/kg, n=1; type: functional
Plasmodium cynomolgi [31] = experiment: Cures in Plasmodium cynomolgi infected rhesus monkey at 1 mg/kg, n=2; type: functional
Plasmodium cynomolgi [32] = experiment: Cures in Plasmodium cynomolgi infected rhesus monkey at 0.316 mg/kg, n=4; type: functional
Mus musculus [33] = experiment: Antimalarial activity was determined in Plasmodium berghei infected mice (Mus musculus) at 10 mg/kg dose; type: functional
Plasmodium cynomolgi [34] = experiment: Cures in Plasmodium cynomolgi infected rhesus monkey at 3.16 mg/kg, n=2; type: functional
Plasmodium cynomolgi [35] = experiment: Cures in Plasmodium cynomolgi infected rhesus monkey at 0.125 mg/kg; n=5; type: functional
Plasmodium cynomolgi [36] = experiment: Cures in Plasmodium cynomolgi infected rhesus monkey at 0.5 mg/kg, n=5; type: functional
Mus musculus [37] = experiment: as §1; type: functional
Plasmodium cynomolgi [38] = experiment: Cures in Plasmodium cynomolgi infected rhesus monkey at 3.16 mg/kg, n=1; type: functional

SMILES | Delta MST (Mus musculus [5]) | Delta MST (Mus musculus [6]) | Delta MST (Mus musculus [7]) | Cures (Plasmodium cynomolgi [12]) | Delta MST (Mus musculus [17]) | Delta MST (Mus musculus [18]) | Cures (Plasmodium cynomolgi [20]) | further results
COc1cc(NC(C)CCCN)c2ncccc2c1 (stereo not given) [PRIMAQUINE] | 4 | 5 | 9.4 |  |  |  |  | Cures (Plasmodium cynomolgi [1]): 0; Cures (Plasmodium cynomolgi [2]): 0; Cures (Plasmodium cynomolgi [3]): 9; Cures (Plasmodium cynomolgi [4]): 10; Toxic deaths (Mus musculus [8]): 2; Toxic deaths (Mus musculus [9]): 5; Toxic deaths (Mus musculus [10]): 5
COc1cc(NC(C)CCCN)c2ncccc2c1Oc1ccc(Cl)cc1 (stereo not given) | 0.7 | 4.7 | 5.5 | 1 | 8.1 | 7.1 |  | Cures (Plasmodium cynomolgi [11]): 0; Cures (Plasmodium cynomolgi [13]): 0; Cures (Plasmodium cynomolgi [14]): 5; Cures (Plasmodium cynomolgi [15]): 3; Cures (Mus musculus [16]): 2
COc1cc(NC(C)CCCN)c2ncccc2c1Oc1ccc(NC(C)=O)cc1 (stereo not given) |  |  |  |  |  |  | 0 | Cures (Plasmodium cynomolgi [19]): 0
COc1cc(NC(C)CCCN)c2nccc(C)c2c1Oc1ccc(F)c(C(F)(F)F)c1 (stereo not given) |  |  |  |  |  |  |  | Cures (Mus musculus [21]): 5; Cures (Mus musculus [22]): 5; Cures (Mus musculus [23]): 5; Cures (Mus musculus [24]): 1; Cures (Mus musculus [25]): 5; Cures (Mus musculus [26]): 1; Cures (Mus musculus [27]): 5
COc1ccc(Oc2c(OC)cc(NC(C)CCCN)c3ncccc23)cc1 (stereo not given) | 0.4 | 0.4 | 1.6 | 1 | 8.6 | 6 | 0 | Cure (Mus musculus [28]): 4
COc1cc(NC(C)CCCN)c2ncccc2c1Oc1ccc(OC(F)(F)F)cc1 (stereo not given) | -0.3 | -0.3 | -0.3 | 1 | 0.7 | 0.5 | 0 | Toxic deaths (Mus musculus [10]): 1
COc1cc(NC(C)CCCN)c2ncccc2c1Oc1ccccc1 (stereo not given) | 0.3 | 1.5 | 1.7 |  | 7.5 | 5.1 |  | Cures (Mus musculus [16]): 2
COc1cc(NC(C)CCCN)c2ncccc2c1Oc1cccc(C(F)(F)F)c1 (stereo not given) | 0.5 | 1.3 | 4.1 |  | 13.5 | 7.1 | 1 | Cures (Plasmodium cynomolgi [11]): 2; Cures (Plasmodium cynomolgi [29]): 3; Cures (Plasmodium cynomolgi [30]): 0; Cures (Mus musculus [28]): 5
COc1cc(NC(C)CCCN)c2ncccc2c1Oc1ccc(F)c(C(F)(F)F)c1 (stereo not given) | -0.2 | 0.8 | 3.4 |  | 12.2 | 4.6 | 1 | Cures (Plasmodium cynomolgi [1]): 2; Cures (Mus musculus [28]): 2
COc1cc(NC(C)CCCN)c2nccc(C)c2c1 (stereo not given) |  |  |  |  | 10 | 9 |  | Cures (Plasmodium cynomolgi [31]): 2; Cures (Plasmodium cynomolgi [32]): 0; Toxic deaths (Mus musculus [10]): 1
COc1cc(NC(C)CCCN)c2ncc(C)cc2c1Oc1ccc(F)c(C(F)(F)F)c1 (stereo not given) | 5.9 | 9.9 | 4 |  | 4 | 5 |  | Toxic deaths (Mus musculus [10]): 1
COc1cc(NC(C)CCCN)c2nccc(C)c2c1Oc1cc(C(F)(F)F)cc(C(F)(F)F)c1 (stereo not given) | 4.3 |  |  |  |  |  |  | Cures (Mus musculus [21]): 3; Cures (Mus musculus [22]): 5; Cures (Mus musculus [23]): 5; Cures (Mus musculus [25]): 5; Cures (Mus musculus [27]): 5; Delta MST (Mus musculus [33]): 1.7
COc1cc(NC(C)CCCN)c2ncccc2c1Oc1ccc(Cl)cc1Cl (stereo not given) | 0.4 | 0.4 | 0.8 | 1 | 4.4 | 2.2 |  | Cures (Plasmodium cynomolgi [34]): 2; Cures (Plasmodium cynomolgi [15]): 0; Delta MST (Mus musculus [28]): 10.4
COc1cc(NC(C)CCCN)c2nccc(C)c2c1Oc1ccccc1 (stereo not given) |  |  |  |  |  |  |  | Cures (Mus musculus [21]): 3; Cures (Mus musculus [23]): 4; Cures (Mus musculus [25]): 4; Cures (Mus musculus [26]): 4; Toxic deaths (Mus musculus [9]): 3; Toxic deaths (Mus musculus [10]): 2; Delta MST (Mus musculus [33]): 8.7
COc1cc(NC(C)CCCN)c2ncccc2c1Oc1ccc(F)cc1 (stereo not given) |  | 2.1 | 5.7 |  | 8.9 | 7.5 |  | Cures (Plasmodium cynomolgi [2]): 3; Cures (Plasmodium cynomolgi [35]): 0; Cures (Plasmodium cynomolgi [36]): 5; Cures (Mus musculus [16]): 5
COc1cc(NC(C)CCCN)c2ncccc2c1Oc1ccc(Cl)c(Cl)c1 (stereo not given) | 1.2 | 0.8 | 0.4 | 1 |  | 6 |  | Cures (Plasmodium cynomolgi [34]): 2; Cures (Plasmodium cynomolgi [15]): 1; Cures (Mus musculus [37]): 1; Cures (Mus musculus [28]): 1
COc1cc(NC(C)CCCN)c2ncccc2c1Oc1cc(C(F)(F)F)cc(C(F)(F)F)c1 (stereo not given) | 0.7 | 0.3 | 0.3 | 1 | 6.3 | 1.5 | 0 | Cures (Plasmodium cynomolgi [38]): 1; Delta MST (Mus musculus [28]): 7.9

Source: ChEMBL document CHEMBL1122135, “Modifications of primaquine as antimalarials. 3. 5-Phenoxy derivatives of primaquine” (J Med Chem, 1982)
